Five compounds from patent publication US8785199B2, “Culture medium and method for inducing differentiation into adipocytes” (Fujirebio, Inc, priority 2009, dated 2014) can be followed below.

In this assay the test system is human bone marrow-derived mesenchymal stem cells. The assay is described as follows: Differentiation induction of human bone marrow-derived mesenchymal stem cells into adipocytes (oil red O staining, adiponectin ELISA, real-time PCR). It is filed as cell-based. The note with it: for necessity of the component for inducing differentiation into adipocytes: component left out of the serum-free differentiation culture medium, 21 days, FIG. 4. The protocol: A serum-free control culture medium (Comparative Example 1) was produced by adding 5 μM of LPA, 1 mM of vitamin C, 100 μM of biotin, and 41.5 nM of progesterone to Dulbecco's modified Eagle's medium (DMEM) containing HEPES (concentration of 25 mM).
To HEPES-containing DMEM, at the final concentrations, 500 μM of isobutylmethylxanthine (IBMX), 1 μM of dexamethasone, 1 μM of insulin, and 1 μM of rosiglitazone were added to produce an adipocyte differentiation inducing culture medium.
To the above adipocyte differentiation inducing culture medium, 5 μM of LPA, 1 mM of vitamin C, 100 μM of biotin, and 41.5 nM of progesterone were added to produce a serum-free differentiation inducing culture medium according to the present invention (hereinafter referred to as serum-free differentiation culture medium: Example 1).
To each of HEPES-containing DMEM and the adipocyte differentiation inducing culture medium, 10% of fetal bovine serum (FBS) was added to produce a conventional culture medium (Comparative Example 2) and a conventional differentiation culture medium (Comparative Example 3).
Human bone marrow-derived mesenchymal stem cells (strain name: normal human mesenchymal stem cells (Cryo hMSC purchased from LONZA) were seeded in a culture container with a 48-hole culture plate at a cell density of 30,000 cells/cm^2. These culture media were replaced with respective fresh ones every three to four days to culture the cells at 37 degrees C. and 5% CO2 for 7 to 21 days, thereby inducing differentiation into adipocytes.
The adipocytes were confirmed by oil red 0 staining of lipid droplets accumulated in the cells. Additionally, the oil red O-stained cells were extracted with isopropanol to measure the quantity of lipid accumulated in the cells using an absorption spectrophotometer (wavelength of 492 nm). Then, the quantities of adiponectin secreted from the cells in the three days: Day 4 to Day 7, Day 11 to Day 14, and Day 18 to Day 21 of differentiation induction were confirmed using an adiponectin ELISA kit (Fujirebio Inc). Furthermore, the mRNA expressions of PPAR-gamma and adiponectin were confirmed by real-time PCR. The forward and reverse primers for PPRA-gamma used were […] (SEQ ID NO:1) and tcgcctttgctttggtcag (SEQ ID NO:2), respectively; the forward and reverse primers for adiponectin used were […] (SEQ ID NO:3) and […] (SEQ ID NO:4), respectively; and the forward and reverse primers for GAPDH used were […] (SEQ ID NO:5) and […] (SEQ ID NO:6), respectively.
As in Example 1, at the final concentrations, 500 μM of IBMX, 1 μM of dexamethasone, 1 μM of insulin, and 1 μM of rosiglitazone were added to HEPES-containing DMEM to produce an adipocyte differentiation inducing culture medium. To the adipocyte differentiation inducing basal medium, 5 μM of LPA, 1 mM of vitamin C, […], and 41.5 nM of progesterone were added to produce a serum-free differentiation culture medium according to the present invention (Example 2). On the other hand, for comparison, there were also prepared a culture medium without LPA alone (Comparative Example 4), a culture medium without vitamin C alone (Comparative Example 5), a culture medium without biotin alone (Comparative Example 6), and a culture medium without progesterone alone (Comparative Example 7).
To DMEM not containing HEPES, at the final concentrations, 500 μM of IBMX, 1 μM of dexamethasone, 1 μM of insulin, and 1 μM of rosiglitazone were added to produce an adipocyte differentiation inducing culture medium 2. To the adipocyte differentiation inducing basal medium 2, 5 μM of LPA, 1 mM of vitamin C, 100 μM of biotin, and 41.5 nM of progesterone were added to produce a serum-free differentiation culture medium 2 (Comparative Example 8).
As in Example 1, human bone marrow-derived mesenchymal stem cells were seeded in the wells of a 48-hole culture plate at the cell density of 30,000 cells/cm^2. […]
(In general: ELISA stands for enzyme-linked immunosorbent assay.)

As for `O=C1O[C@H]([C@@H](O)CO)C(O)=C1O` [vitamin C], the “necessity of the component for inducing differentiation into adipocytes” value is listed as “necessary”.
The same measure, in the same setting: in the case of “1-oleoyl lysophosphatidic acid sodium [LPA]” it was “necessary”.
Take `CC(=O)[C@H]1CC[C@H]2[C@@H]3CCC4=CC(=O)CC[C@]4(C)[C@H]3CC[C@]12C` [progesterone]: the “effect on the quantity of lipid droplets in adipocytes when added to the culture medium” value is recorded as “increasing the quantity of lipid droplets in adipocytes” and the “necessity of the component for inducing differentiation into adipocytes” value is reported as “not essential”.
With `O=S(=O)(O)CCN1CCN(CCO)CC1` [HEPES, 2-[4-(2-hydroxyethyl)-1-piperazinyl]ethanesulfonic acid], the “necessity of the component for inducing differentiation into adipocytes” value is “necessary”.
The same measure, in the same setting: in the case of `O=C(O)CCCC[C@@H]1SC[C@@H]2NC(=O)N[C@@H]21` [biotin] it was “necessary”.
